Reference: patent US20210230213A1, “ARAMCHOL SALTS” (GALMED RESEARCH AND DEVELOPMENT LTD., priority 2013, published 2021)

Test: Accelerated stability of Aramchol N-methylglucamine at 40° C./75% RH (Example 5)
Format: physicochemical
Conditions: for assay: calculated against free acid reference
Experimental: The following parameters were determined at t=0, t=1 week, t=2 weeks: appearance, LC-purity, LC-assay (the assay is calculated against the reference which is the free acid and therefore, the results are less than 100%), water content. The appearance and purity remained unchanged under the investigated conditions. […] The calculated assay remained relatively unchanged under the investigational conditions. Water content increased under the investigational conditions and the material seemed hygroscopic. The attraction of water in the solid state form was more prominent for material stored in an open container.

“3β-arachidylamido-7α,12α-dihydroxy-5β-cholan-24-oic acid N-methylglucamine salt” showed a purity (40° C./75% RH, as a solution in a closed flask, T = 0) of 99.5%, a purity (40° C./75% RH, as a solution in a closed flask, T = 1 (week)) of 99.5% and a purity (40° C./75% RH, as a solution in a closed flask, T = 2 (weeks)) of 99.5%. It also gave a water (40° C./75% RH, solid in a closed container, T = 0) of 1.2%, a water (40° C./75% RH, solid in a closed container, T = 1 (week)) of 1.6% and a water (40° C./75% RH, solid in a closed container, T = 2 (weeks)) of 2.0%. It also gave a water (40° C./75% RH, solid in an open container, T = 0) of 1.2%, a water (40° C./75% RH, solid in an open container, T = 1 (week)) of 4.3% and a water (40° C./75% RH, solid in an open container, T = 2 (weeks)) of 5.7%. For the same substance, the purity (40° C./75% RH, solid state form in a closed container, T = 0) was 99.5%, the purity (40° C./75% RH, solid state form in a closed container, T = 1 (week)) was 99.4% and the purity (40° C./75% RH, solid state form in a closed container, T = 2 (weeks)) was 99.5%. For the same substance, the purity (40° C./75% RH, solid state form in an open container, T = 0) was 99.5%, the purity (40° C./75% RH, solid state form in an open container, T = 1 (week)) was 99.5% and the purity (40° C./75% RH, solid state form in an open container, T = 2 (weeks)) was 99.5%. The “purity on exposure to 40° C./75% RH” value (40° C./75% RH, up to 2 weeks) was “no change to purity values”, the assay (solid in a closed container, T = 0) was 74.7% and the assay (solid in a closed container, T = 1 (week)) was 72.8%. For the same substance, the assay (solid in a closed container, T = 2 (weeks)) was 74.4%, the assay (solid in an open container, T = 0) was 74.7% and the assay (solid in an open container, T = 1 (week)) was 76.7%. The assay (solid in an open container, T = 2 (weeks)) was 71.9%, the assay (solution in a closed flask, T = 0) was 74.7% and the assay (solution in a closed flask, T = 1 (week)) was 75.3%. The assay (solution in a closed flask, T = 2 (weeks)) was 74.8%.
